Measurements reported in patent US7803757B2, “Peptides based on the sequence of human lactoferrin and their use” (PharmaSurgics in Sweden AB, priority 1998, dated 2010).
Square brackets hold non-standard residues; d marks the D form. Ends that are not written are not given here. Orn = NCCC[C@H](N)C(=O)O

Assays:
Assay type in all cases: cell-based
C. albicans [1] = assay: MMC99% of modified peptides, C. albicans (Example 25); details: BHI diluted 1/100, pH approximately 6.7-6.9 (Table 21)
Protocol: (§1) In the examples, the minimal microbicidal concentrations (MMC) and minimal inhibitory concentrations (MIC) were determined as follows, unless otherwise specified in the examples. Bacterial or fungal strains were cultured in BHI medium over night at 37° C. A volume of the culture was transferred to a new tube with BHI and incubated for two more hours. Thereafter the cells were spun down and the pellet was suspended in BHI medium diluted 1/100 (1% BHI). The concentration of bacterial or fungal cells was spectrophotometrically determined at 650 nm. The microbial concentrations were also determined by viable counts. Peptides serially diluted in 1% BHI by twofold or tenfold steps were added in triplicate to the wells of a microtiterplate (200 μl per well). The bacterial or fungal cell solutions were added in 10 μl volumes to give a final concentration of approximately 1-5×10^5 cells per ml in the well. The microplate was incubated at 37° C. in a humid chamber for two hours. Thereafter 5 μl was taken from each well and added as a drop onto a blood agar plate and incubated over night at 37° C. The microplate was incubated for another 20 hours at 37° C. and thereafter analysed spectrophotometrically at 650 nm in a microplate reader (Emax, Molecular Devices, USA). The concentration of peptide causing a 99% reduction of the inoculum after 2 hours of incubation was defined as the MMC99%. The MIC value was defined as the concentration giving no increase in the absorbance value above the background level after 20 hours of incubation.
(§2) In this example the fungicidal, and bactericidal effects of the different peptides obtained in examples 18-21 were studied. C. albicans, E. coli and S. aureus, respectively, were incubated in BHI medium diluted 1/100, with a pH of approximately 6.7-6.9. The concentration of each peptide needed to kill 99% of the microorganisms (MMC99%) was determined.

E. coli [2] = assay: MMC99% of modified peptides, E. coli (Example 25); details: BHI diluted 1/100, pH approximately 6.7-6.9 (Table 21)
Protocol: as §1, §2

S. aureus [3] = assay: MMC99% of modified peptides, S. aureus (Example 25); details: BHI diluted 1/100, pH approximately 6.7-6.9 (Table 21)
Protocol: as §1, §2

C. albicans [4] = assay: fungicidal activity MMC99%, C. albicans (Example 27); details: BHI diluted 1/100 (Table 23)
Protocol: as §1
(§3) In this example the fungicidal activity of three of the peptides according to the invention was studied, and tested against three different fungi. The fungi were incubated in BHI medium diluted 1/100. The concentration of each peptide needed to kill 99% of the fungi (MMC99%) was determined.

C. glabrata = assay: fungicidal activity MMC99%, C. glabrata (Example 27); details: BHI diluted 1/100 (Table 23)
Protocol: as §1, §3

C. neoformans = assay: fungicidal activity MMC99%, C. neoformans (Example 27); details: BHI diluted 1/100 (Table 23)
Protocol: as §1, with “The bacterial or fungal cell solutions were added in 10 μl volumes to give a final concentration of approximately 1-5×10^5 cells per ml in the well. The microplate was incubated at 37° C. in a humid chamber for two hours. Thereafter 5 μl was taken from each well and added as a drop onto a blood agar plate and incubated over night at 37° C.” left out, “The concentration of peptide causing a 99% reduction of the inoculum after 2 hours of incubation was defined as the MMC99%.” left out
In this example the fungicidal activity of three of the peptides according to the invention was studied, and tested against three different fungi. […] The concentration of each peptide needed to kill 99% of the fungi (MMC99%) was determined.

E. coli O6K5 = assay: microbicidal activity MMC99%, E. coli O6K5 (Example 28); details: E. coli O6K5 (Table 24)
Outline: (§4)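 Peptides serially diluted in 1% BHI were incubated with E. coli O6K5 or C. albicans (~1-5×10^5 cells/ml) for 2 h at 37 °C, then spotted on blood agar overnight. MMC99% was the peptide concentration causing 99% reduction of the inoculum.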

C. albicans [5] = assay: microbicidal activity MMC99%, C. albicans (Example 28); details: C. albicans (Table 24)
Outline: as §4

C. albicans (ATCC64549) = test system: C. albicans (ATCC64549)
Outline: (§5)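 Microbes at ~1–5×10^5 cells/mL in 1% BHI exposed to peptides (1, 10, 25, 100 µg/ml) at 37 °C. MMC99%: concentration killing 99% of inoculum after 2 h, by spotting onto blood agar. MIC: no absorbance rise at 650 nm above background after a further 20 h.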

E. coli O6 = test system: E. coli O6
Outline: as §5

[6] = test system: C. albicans yeast cells (ATCC64549); assay: killing and growth inhibition of C. albicans at pH 4.5 (Example 11); design: key to C. albicans inhibition (OD650): + = no increase in OD650 is seen; − = OD650 continues to increase; details: pH 4.5, 1% BHI, 25 μg/ml of the peptide
Outline: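 Yeast cells exposed 2 h at pH 4.5 to 25 µg/ml peptide in 1% BHI, then plated on blood agar. Killing scored as 100% and 99% fungicidal effect; growth inhibition read as no OD650 increase after a further 18 h.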

E. faecalis = assay: killing of bacteria at fixed peptide concentration, E. faecalis (Example 12); details: peptide 25 μg/ml
Protocol: (§6) In this example, the peptides according to the invention were used to study the effect on the killing of different bacteria.
(§7) The peptides were used at a concentration of 25 μg/ml.

S. epidermis = assay: killing of bacteria at fixed peptide concentration, S. epidermis (Example 12); details: peptide 25 μg/ml
Protocol: as §6, §7

S. aureus [7] = assay: killing of bacteria at fixed peptide concentration, S. aureus (Example 12); details: peptide 25 μg/ml
Protocol: as §6, §7

K. pneumoniae = assay: killing of bacteria at fixed peptide concentration, K. pneumoniae (Example 12); details: peptide 25 μg/ml
Protocol: as §6, §7

P. aeruginosa = assay: killing of bacteria at fixed peptide concentration, P. aeruginosa (Example 12); details: peptide 25 μg/ml
Protocol: as §6, §7

C. albicans [8] = assay: MMC99% of modified peptides, C. albicans (Example 26); details: BHI diluted 1/100, pH approximately 6.7-6.9 (Table 22)
Protocol: as §1
as §2, with “example 22” for “examples 18-21”

E. coli [9] = assay: MMC99% of modified peptides, E. coli (Example 26); details: BHI diluted 1/100, pH approximately 6.7-6.9 (Table 22)
Protocol: as §1
as §2, with “example 22” for “examples 18-21”

S. aureus [10] = assay: MMC99% of modified peptides, S. aureus (Example 26); details: BHI diluted 1/100, pH approximately 6.7-6.9 (Table 22)
Protocol: as §1
as §2, with “example 22” for “examples 18-21”

Substance: C-F-Q-W-Orn-R-N-M-R-K-V-R (CFQW[Orn]RNMRKVR) [SEQ. ID. NO. 87]
- MMC99% (C. albicans [1]): 3
- MMC99% (E. coli [2]): 6
- MMC99% (S. aureus [3]): ≦3.5
- MMC99% (C. albicans [4]): 6.3
- MMC99% (C. glabrata): >50
- MMC99% (C. neoformans): 3.1
- MMC99% (E. coli O6K5): 5
- MMC99% (C. albicans [5]): 5

Substance: CFQWQRNMRKVR [Peptide 46, C-F-Q-W-Q-R-N-M-R-K-V-R]
- MIC (C. albicans (ATCC64549); ATCC64549): 10 µg/mL
- MMC99% (C. albicans (ATCC64549); C. albicans, tested at 1, 10, 25 and 100 μg/ml of peptide): 10 µg/mL
- MMC99% (E. coli O6; E. coli O6, tested at 1, 10, 25 and 100 μg/ml of peptide): 10 µg/mL
- MIC (E. coli O6; O6): 10 µg/mL
- C. albicans inhibition (OD650) ([6]; OD650 after an additional 18 hours): +
- C. albicans killing: 99% ([6]; 2 hours): + (+ = 100/99% of the bacteria are killed)
- C. albicans killing: 100% ([6]; 2 hours): + (+ = 100/99% of the bacteria are killed)
- killing of bacteria: E. faecalis (E. faecalis): + (+ = 99% of the bacteria are killed)
- killing of bacteria: S. epidermis (S. epidermis): + (+ = 99% of the bacteria are killed)
- killing of bacteria: S. aureus (S. aureus [7]): + (+ = 99% of the bacteria are killed)
- killing of bacteria: K. pneumoniae (K. pneumoniae): + (+ = 99% of the bacteria are killed)
- killing of bacteria: P. aeruginosa (P. aeruginosa): + (+ = 99% of the bacteria are killed)
- MMC99% (C. albicans [1]): 12
- MMC99% (E. coli [2]): 12
- MMC99% (S. aureus [3]): 7
- MMC99% (C. albicans [8]): 12
- MMC99% (E. coli [9]): 6
- MMC99% (S. aureus [10]): 12
- MMC99% (C. albicans [4]): 12.5
- MMC99% (C. glabrata): 50
- MMC99% (E. coli O6K5): 10
- MMC99% (C. albicans [5]): 10
